Key:
Assay type in all cases: in vivo
[1] = tested on: patient exhibiting rheumatoid arthritis and severe consequential synovial inflammation; experiment: Treatment of synovial inflammation/synovitis consequent to inflammatory processes, trial on a patient (Example 1); settings: for outcome of previous treatment: same rheumatoid arthritis patient, treatment before trial entry
Procedure: The subject is treated for 5 days sequentially with tropisetron administered at a dose of 2 mg/day i.v. Treatment results in amelioration of the synovial inflammation, a reduction of stiffness in the morning and remission from the formation of effusion in the kneejoint.

[2] = tested on: patient with meniscus damage and arthritic change leading to synovial inflammation with knee joint effusion; experiment: Treatment of synovial inflammation with knee joint effusion, patient (Example 2)
Procedure: Two 2 mg doses of tropisetron are administered i.v. over a period of 17 days with 15 injections, one each day with a 2 days pause in therapy. […] The improvement in condition continues over a further 7 days observation following completion of therapy.

[3] = tested on: patient exhibiting marked dermatomyositis with bioptically verified vasculitis; experiment: Treatment of dermatomyositis/vasculitis, patient (Example 3)
[4] = rheumatoid arthritis patient, 2 mg/day i.v. for 5 days
[5] = 3 injections i.v., each 2 mg, observed already after the first injection

Row | Compound | outcome of previous treatment [1] | formation of effusion in the knee joint [1, 4] | glucocorticoid requirements [1, 4] | measure parameters for inflammation [1, 4] | stiffness in the morning [1, 4] | synovial inflammation [1, 4] | movement of the knee joint ([2]; 2 mg i.v., 15 injections over 17 days) | pain ([2]; 24 hours after the first i.v. injection of 2 mg) | symptoms ([2]; following continuation of injections (2 mg i.v., 15 injections over 17 days)) | duration of continued improvement in condition after completion of therapy ([2]; observation following completion of therapy) | exudation from the knee joint ([2]; within 8 days, without any other medication) | massive reddening of the skin [3, 5] | pain symptoms [3, 5] | complaints in follow-up ([3]; over a period of one week following)
1 | Cn1cnc([N+](=O)[O-])c1Sc1ncnc2[nH]cnc12 [azathioprin] | largely unsuccessfully |  |  |  |  |  |  |  |  |  |  |  |  | 
2 | CN(Cc1cnc2nc(N)nc(N)c2n1)c1ccc(C(=O)N[C@@H](CCC(=O)O)C(=O)O)cc1 [methotrexate] | largely unsuccessfully |  |  |  |  |  |  |  |  |  |  |  |  | 
3 | CN1[C@@H]2CC[C@H]1C[C@@H](OC(=O)c1c[nH]c3ccccc13)C2 [tropisetron, Indol-3-yl-carboxylic acid-endo-8-methyl-8-aza-bicyclo[3,2,1]-oct-3-yl-ester] |  | remission | marked reduction | reduction | reduction | amelioration | clearly improved | significant improvement | virtually free of symptoms | 7 days | completely inhibited | Virtually complete remission | clear reduction | substantially complaint free

Source: patent publication US6384042B2, “Systemic use of 5-HT3 receptor antagonists against rheumatic inflammatory processes” (priority 1999, dated 2002)
